From ChEMBL document CHEMBL1201862, “PubChem BioAssay data set” (2004) come the findings set out here.

SMILES strings stand for the structures. Active and inactive are the calls of the source. Some results are limits rather than exact numbers.

Data set [1] in a line: NIH-3T3 fibroblast cytotoxicity, dose response, cytotoxicity control, cell-based, fluorescence, Alamar Blue, secondary assay (AID 2327).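 Also: NIH-3T3 mouse fibroblasts cultured with fluconazole at 8 µg/mL.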 It is filed as functional.
Data set [2] is described as follows: fluconazole-exposed Candida albicans growth modulators – fluorescence, retest, confirmation (AID 2467). It is filed as functional, cell-based.
In data set [3] the target is T1, Rac GTPase-activating protein 1 (Homo sapiens, UniProt Q9H0H5).
T1 sequence (Q9H0H5 whole entry): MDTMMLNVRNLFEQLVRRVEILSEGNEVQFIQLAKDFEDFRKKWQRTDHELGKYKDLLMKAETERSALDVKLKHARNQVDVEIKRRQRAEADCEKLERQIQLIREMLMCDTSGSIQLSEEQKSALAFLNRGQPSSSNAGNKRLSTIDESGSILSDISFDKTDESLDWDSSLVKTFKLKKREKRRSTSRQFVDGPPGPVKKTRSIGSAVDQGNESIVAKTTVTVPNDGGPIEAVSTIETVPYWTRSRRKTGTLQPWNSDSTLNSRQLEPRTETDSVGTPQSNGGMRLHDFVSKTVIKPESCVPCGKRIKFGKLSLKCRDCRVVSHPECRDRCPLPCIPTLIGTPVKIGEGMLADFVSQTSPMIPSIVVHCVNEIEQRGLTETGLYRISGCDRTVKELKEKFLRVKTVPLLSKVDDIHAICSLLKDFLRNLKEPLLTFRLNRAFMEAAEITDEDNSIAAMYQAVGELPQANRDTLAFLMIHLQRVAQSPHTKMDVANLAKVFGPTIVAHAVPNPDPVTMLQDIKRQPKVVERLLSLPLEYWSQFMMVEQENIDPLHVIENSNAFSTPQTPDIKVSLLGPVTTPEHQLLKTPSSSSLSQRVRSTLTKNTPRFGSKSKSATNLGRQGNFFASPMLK
The data set can be described thus: blockers of MgcRacGAP-driven Rac1 GTP hydrolysis – biochemical, ADP Hunter fluorescence, primary and confirmatory, confirmation (AID 624330). It is filed as functional.

In the next data set the target is Cytochrome P450 2C9 (Homo sapiens, UniProt P11712).
The next data set addresses Cytochrome P450 2C19 (Homo sapiens, UniProt P33261). The data set can be described thus: Cytochrome panel assay with activity outcomes. Panel member name: p450-cyp2c19 Compounds with AC50 equal or less than 10 uM are considered active. It is filed as functional.
For a further data set, the target named is T2, Cytochrome P450 1A2 (Homo sapiens, UniProt P05177).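 Also: PubChem cytochrome P450 panel assay, CYP1A2 panel member.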
T2 sequence (P05177 whole entry): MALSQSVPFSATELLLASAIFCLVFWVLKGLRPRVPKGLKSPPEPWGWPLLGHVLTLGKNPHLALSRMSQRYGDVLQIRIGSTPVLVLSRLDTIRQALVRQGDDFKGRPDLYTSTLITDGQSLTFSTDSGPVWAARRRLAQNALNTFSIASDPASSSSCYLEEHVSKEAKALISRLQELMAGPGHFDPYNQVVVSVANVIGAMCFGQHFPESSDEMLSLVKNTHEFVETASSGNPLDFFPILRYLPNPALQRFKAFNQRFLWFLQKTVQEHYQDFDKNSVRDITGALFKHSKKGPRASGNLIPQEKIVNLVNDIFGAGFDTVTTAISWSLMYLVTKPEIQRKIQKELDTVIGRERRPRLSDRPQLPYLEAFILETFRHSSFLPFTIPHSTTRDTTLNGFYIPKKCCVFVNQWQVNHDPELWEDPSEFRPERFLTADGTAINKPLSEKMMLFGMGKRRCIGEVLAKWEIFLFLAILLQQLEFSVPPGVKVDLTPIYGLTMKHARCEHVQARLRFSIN

Data set [4] is described as follows: Luminescence Cell-Based Dose Response HTS to Identify Activators of Luciferase Translation or Activity in H4 […] Cells. [Related pubchem assays: 1829 (Project Summary), 1814 (Primary HTS)]. It is filed as functional.
The next data set deals with H4. The data set can be described thus: Luminescence Cell-Based Dose Response HTS to Identify Activators of 5'UTR Stem-Loop Driven Prion Protein mRNA Translation in H4 Neuroglioblastoma Cells. [Related pubchem assays: 1829 (Project Summary), 1814 (Primary HTS)]. It is filed as functional. As to conditions: Homo sapiens.
Data set [5] in a line: Luminescence Cell-Based Dose Confirmation HTS to Identify Activators of 5'UTR Stem-Loop Driven Alpha-Synuclein mRNA Translation in H4 Neuroglioblastoma Cells. [Related pubchem assays: 1829 (Project Summary), 1814 (Primary HTS)]. It is filed as functional.
A further data set deals with Cytochrome P450 3A4 (Homo sapiens, UniProt P08684).
Another data set can be described thus: cells. It is filed as functional.
A short description of data set [6]: Luminescence Cell-Based Dose Retest to Confirm Inhibitors of Cancer Stem Cells. [Related pubchem assays (depositor defined):AID2717, AID2721]. It is filed as functional. As to conditions: Homo sapiens.

Chain of Cytochrome P450 2C9 (P11712 whole entry): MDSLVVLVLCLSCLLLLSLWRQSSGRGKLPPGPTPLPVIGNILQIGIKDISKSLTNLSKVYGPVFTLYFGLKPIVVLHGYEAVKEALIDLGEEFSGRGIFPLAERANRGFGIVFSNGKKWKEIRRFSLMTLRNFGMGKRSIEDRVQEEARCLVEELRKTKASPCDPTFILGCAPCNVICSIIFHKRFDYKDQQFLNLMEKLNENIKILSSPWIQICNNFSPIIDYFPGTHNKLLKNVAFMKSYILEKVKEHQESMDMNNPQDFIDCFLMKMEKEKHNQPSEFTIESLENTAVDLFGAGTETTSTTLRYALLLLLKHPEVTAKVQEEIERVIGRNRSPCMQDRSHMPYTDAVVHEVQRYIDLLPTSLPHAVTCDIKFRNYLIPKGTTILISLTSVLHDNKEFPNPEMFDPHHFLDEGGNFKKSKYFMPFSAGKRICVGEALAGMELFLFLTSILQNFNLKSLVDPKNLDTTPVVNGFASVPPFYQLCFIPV
Chain of Cytochrome P450 2C19 (P33261 whole entry): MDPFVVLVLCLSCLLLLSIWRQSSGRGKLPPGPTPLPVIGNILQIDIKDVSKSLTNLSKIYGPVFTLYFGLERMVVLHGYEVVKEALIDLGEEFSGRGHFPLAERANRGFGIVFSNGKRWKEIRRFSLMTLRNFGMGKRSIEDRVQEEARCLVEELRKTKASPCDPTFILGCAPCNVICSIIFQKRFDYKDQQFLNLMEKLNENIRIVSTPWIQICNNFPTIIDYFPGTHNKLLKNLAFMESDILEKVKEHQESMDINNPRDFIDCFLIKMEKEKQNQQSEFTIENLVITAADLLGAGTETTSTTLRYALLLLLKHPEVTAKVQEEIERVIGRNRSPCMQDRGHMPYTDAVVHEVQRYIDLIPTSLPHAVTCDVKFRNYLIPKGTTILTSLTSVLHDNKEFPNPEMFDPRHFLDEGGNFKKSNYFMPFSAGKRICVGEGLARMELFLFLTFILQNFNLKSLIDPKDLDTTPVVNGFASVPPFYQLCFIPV
Chain of Cytochrome P450 3A4 (P08684 whole entry): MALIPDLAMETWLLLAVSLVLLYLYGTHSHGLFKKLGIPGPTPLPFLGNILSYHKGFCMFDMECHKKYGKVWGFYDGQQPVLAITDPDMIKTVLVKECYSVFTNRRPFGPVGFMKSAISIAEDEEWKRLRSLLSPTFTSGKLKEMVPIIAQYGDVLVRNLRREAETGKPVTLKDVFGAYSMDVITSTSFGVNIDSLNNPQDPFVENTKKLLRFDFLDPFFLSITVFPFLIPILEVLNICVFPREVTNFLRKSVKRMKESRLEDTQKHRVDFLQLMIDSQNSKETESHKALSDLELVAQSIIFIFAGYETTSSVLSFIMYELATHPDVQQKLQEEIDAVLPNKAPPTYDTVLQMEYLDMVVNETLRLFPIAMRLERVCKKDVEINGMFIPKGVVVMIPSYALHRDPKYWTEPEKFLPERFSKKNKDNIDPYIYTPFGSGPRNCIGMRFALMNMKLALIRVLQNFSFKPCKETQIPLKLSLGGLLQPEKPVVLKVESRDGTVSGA

Regarding `O=C(Cn1c2ccc(F)cc2c2nc3n(c(=O)c21)CCS3)N1CCCC1`, the figures for the EC50 in [1] and in data set [2] were > 160 µM (inactive) and 0.66 µM (active), respectively.

With `COC(=O)c1cc(NCc2cccs2)ccc1N1CCOCC1`, the IC50 in [3] is 135 µM (active).

As for `CCN1C(=O)C2(SC(NC(C)=O)=NN2C(C)=O)c2cc(C)ccc21` (configuration not stated), the figures for the AC50 on Cytochrome P450 2C9 and at Cytochrome P450 2C19 (read-out: AC50) were 31.6 µM (inconclusive) and 14.1 µM (inconclusive), respectively.

Take `O=c1c(-c2ccccc2)nc2cnc(N3CCOCC3)nc2n1Cc1ccc(F)cc1`: the AC50 is 20 µM (inconclusive) at Cytochrome P450 1A2 and 15.8 µM (inconclusive) on Cytochrome P450 2C9.

Regarding `Cc1ccc(-c2cc(C(=O)N3CCCc4ccccc43)no2)cc1`, the EC50 in data set [4] was > 120 µM (not active); in the data set on H4 it was 11.8 µM (active); in data set [5] it was 52.4 µM (active).

As to `CC(C)[C@@H]1O[C@H](/C=C\c2ccccc2)OCC1(C)C`, the AC50 was 5.01 µM (inconclusive) at Cytochrome P450 3A4, 3.16 µM (inconclusive) on Cytochrome P450 2C9 and 5.01 µM (inconclusive) on Cytochrome P450 2C19 (read-out: AC50).

Take `O=C(Nc1nnc(-c2ccccn2)o1)c1ccc(Br)cc1`: the EC50 was 18.3 µM (inconclusive) in [1] and > 38 µM (not active) in [2].

Regarding `Cc1ccc(NC(=O)CCNCc2ccco2)cc1S(=O)(=O)N(C)C`, in data set [3], the IC50 was 229 µM (active).

Consider `O=[N+]([O-])c1ccc(N2CCN(Cc3ccc([N+](=O)[O-])o3)CC2)cc1`, for which the EC50 in data set [1] is > 150 µM (inactive); in data set [2], > 38 µM (not active). Also, the IC50 in “cells” was < 0.1 µM (active).

With `O=c1c(CCc2ccccc2)nc2cnc(N3CCOCC3)nc2n1CCc1ccccc1`, the AC50 at Cytochrome P450 1A2 is 25.1 µM (inconclusive); on Cytochrome P450 2C9, 2 µM (inconclusive).

Regarding `N=c1n(CCN2CCOCC2)c2ccccc2n1CC(=O)c1ccc(Cl)c(Cl)c1`, the EC50 in [4] was > 120 µM (not active); in the data set on H4, 41.8 µM (inconclusive); in data set [5], > 120 µM (not active).

Regarding `Cc1cc(C)c(C)c(S(=O)(=O)N2CCN(c3ccc(O)cc3)CC2)c1C`, in data set [3], the IC50 was 85.9 µM (active). The AC50 in [6] is 8.83 µM (active).

Turning to `Cc1cccc2cc(C#N)c(SCc3nnc(-c4ccccc4[N+](=O)[O-])o3)nc12`, the EC50 is 75.4 µM (active) in data set [4], 18.4 µM (active) in the data set with H4 and > 120 µM (not active) in data set [5].

With `O=C(CN1C(=O)S/C(=C\C=C\c2ccccc2)C1=O)Nc1cccc(O)c1`, the EC50 in data set [4] is 40.1 µM (active); in the data set with H4, 49.2 µM (active); in [5], 16.4 µM (active).

For the compound `COC(=O)C1C(=O)C=C(Nc2ccc(F)cc2F)CC1c1ccccc1` (configuration not stated), the EC50 in data set [4] was 95.6 µM (active); with H4, 17.6 µM (active); in [5] it was > 120 µM (not active).

For `COc1ccccc1C(OC(=O)c1cccs1)C(=O)NCC1CCCO1` (configuration not stated), the AC50 at Cytochrome P450 1A2 is 14.1 µM (inconclusive); on Cytochrome P450 3A4 it was 25.1 µM (inconclusive); at Cytochrome P450 2C9 it was 14.1 µM (inconclusive); at Cytochrome P450 2C19 (read-out: AC50), 5.01 µM (inconclusive).

Regarding `O=C(c1cc(-c2cccc(Cl)c2)on1)N1CCOCC1`, the EC50 was 26.4 µM (active) in data set [4], 21.1 µM (active) in the data set on H4 and 4.22 µM (active) in [5].

Take `Cc1ccc(C(C)(C)NC(=O)C2CCC(=O)N(C3CCCCCC3)C2)cc1` (configuration not stated): the figures for the EC50 (in data set [4]; in the data set with H4; in [5]) were 10.2 µM (active), > 120 µM (not active) and 83.3 µM (active), respectively.

Consider `Oc1ccc(NCc2ccc(OCc3ccccc3)cc2)cc1`, for which, in data set [3], the IC50 is 60.5 µM (active).

`CCCCc1cc(=O)oc2cc(OCC(=O)N(CC)CC)ccc12`: the values for the AC50 on Cytochrome P450 2C9 and at Cytochrome P450 2C19 (read-out: AC50) were 25.1 µM (inconclusive) and 31.6 µM (inconclusive), respectively.

Regarding `Cc1ccc(C(=O)NC(=S)Nc2cccc3nsnc23)cc1`, the AC50 at Cytochrome P450 2C9 was 35.5 µM (inconclusive); at Cytochrome P450 2C19, “inconclusive”.

As for `COc1cc(/C=C/C(=O)OCC(=O)c2ccc(OC(F)F)cc2)ccc1O`, the IC50 in [3] is 64 µM (active).

As to `Nc1cc(Cc2ccccc2)ccc1O`, the IC50 in data set [3] was 18 µM (active).

`C/C(=N\N1C(=O)CSC1=S)c1ccc(Br)cc1`: the EC50 in data set [1] is > 160 µM (inactive); in data set [2], > 38 µM (not active).

As for `Cc1cccc(/C=N/c2ccc3c4c(cccc24)CC3)c1O`, the IC50 in data set [3] is 20 µM (active).

As for `COc1cccc(/C=N/NC(=O)CCn2nnc3ccccc32)c1`, the EC50 (in data set [4]; in the data set on H4; in data set [5]) was > 120 µM (not active) each time.

On to `COC(=O)/C(=N\Nc1ccc(Cl)cc1)Sc1nnc(-c2ccc(OC)cc2)n1C`, for which the EC50 in data set [1] is > 160 µM (inactive); in [2], > 38 µM (not active).

Regarding `O=C1c2ccccc2C(Cc2ccncc2)(Cc2ccncc2)c2ccccc21`, the figures for the AC50 on Cytochrome P450 1A2 and at Cytochrome P450 2C9 were 39.8 µM (inconclusive) and 20 µM (inconclusive), respectively.

The EC50 is the concentration at which the effect is half-maximal. By IC50 is commonly meant the concentration at which inhibition is half-maximal. What is called AC50 is the concentration at which the activity in the assay is half-maximal.
